The values below come from patent US10711245B2, “Direct conversion method of human fibroblasts into neural stem cells using small molecules” (KOREA UNIVERSITY RESEARCH AND BUSINESS FOUNDATION, priority 2015, dated 2020).

In this assay the test system is human fibroblasts. The experiment in a line: Marker gene expression by quantitative PCR in human fibroblasts cultured with each single small-molecule compound. In kind it is cell-based. Conditions: each compound alone in neurobasal medium (DMEM/F12, N2, B27, bFGF, EGF), markers nestin, sox1, sox2, pax6. The protocol: To investigate the function of each of small-molecule compounds and find an optimal combination of small-molecule compounds, 1×10^5 human fibroblasts were prepared in 60 mm dishes, and on the next day, the cells were cultured in a neurobasal medium (containing DMEM/F12, N2, B27, bFGF, and EGF) supplemented with each of 13 different small-molecule compounds (PD0325901, SB431542, Thiazovivin, Ascorbic acid, PS48, CHIR99021, Deazaneplanocin A, Valproic acid, Forskolin, Tranylcypromine, A8301, 5-AZA, and Purmorphamine). Then, the morphological changes of the cells were observed while the medium was replaced at 2-3-day intervals (FIG. 1). The cells were subcultured at 5-day intervals, and in this stage, the cells were sampled in order to examine gene expression patterns therein. Using the cell sample, the expression patterns of a fibroblast marker (Thy1), neural stem cell markers (nestin, sox1, sox2, pax6), a MET or EMT marker (snail, N-cadherin, E-cadherin), endodermal and mesodermal markers (AFP, GATA4), and a marker (Zsacn4) associated with the maintenance of chromosomal stability, in the cell sample, were analyzed by quantitative PCR (FIG. 2).

As to `Nc1ncn([C@@H]2O[C@H](CO)[C@@H](O)[C@H]2O)c(=O)n1` [5-AZA, 4-amino-1-β-D-ribofuranosyl-1,3,5-triazin-2(1H)-one], the “expressions of the neural stem cell marker genes” value is “distinctly increased”.

For the compound `Cc1cccc(-c2nn(C(=S)Nc3ccccc3)cc2-c2ccnc3ccccc23)n1` [A8301, 3-(6-Methyl-2-pyridinyl)-N-phenyl-4-(4-quinolinyl)-1H-pyrazole-1-carbothioamide], the “expressions of the neural stem cell marker genes” value is reported as “distinctly increased”. The value for `Cc1cnc(-c2cnc(NCCNc3ccc(C#N)cn3)nc2-c2ccc(Cl)cc2Cl)[nH]1` [CHIR99021, 6-[[2-[[4-(2,4-dichlorophenyl)-5-(5-methyl-1H-imidazol-2-yl)-2-pyrimidinyl]amino]ethyl]amino]-3-pyridinecarbonitrile] was “distinctly increased”; that for `Nc1nccc2c1ncn2[C@@H]1C=C(CO)[C@@H](O)[C@H]1O` [Deazaneplanocin A, 5R-(4-amino-1H-imidazo[4,5-c]pyridin-1-yl)-3-(hydroxymethyl)-3-cyclopentene-1S,2R-diol] was “distinctly increased”; that for `NC(=O)c1ccc(-c2nc(-c3ccc4c(c3)OCO4)c(-c3ccccn3)[nH]2)cc1` [SB431542, 4-[4-(3,4-Methylenedioxyphenyl)-5-(2-pyridyl)-1H-imidazol-2-yl]benzamide] was “distinctly increased”. The entry for `O=C(NCc1ccccc1)c1csc(Nc2ccncn2)n1` [Thiazovivin, N-(phenylmethyl)-2-(4-pyrimidinylamino)-4-thiazolecarboxamide] is “distinctly increased”; for `CCCC(CCC)C(=O)O` [Valproic acid, 2-propyl-pentanoic acid] it is “distinctly increased”.
